Assay results from ChEMBL document CHEMBL1201862, “PubChem BioAssay data set” (2004).
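48-hour exposure; five concentrations; linearly interpolated endpoints. GI50 = concentration required for 50% inhibition of growth.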 Activity calls are given as the source filed them. Cut-off read from the data, not from the text of the source: active = GI50 up to about 1.1 µM and inactive = higher.

How the values were obtained:
Assay in all cases: NCI anticancer screen, dose series, 48 h
[1] = tested on: EKVX
[2] = tested on: U-251
[3] = tested on: HOP-62
[4] = tested on: HCC 2998
[5] = tested on: MDA-MB-435
[6] = tested on: SF-295
[7] = tested on: HL-60
[8] = tested on: SF-539
[9] = tested on: COLO 205
[10] = tested on: SK-OV-3
[11] = tested on: BT-549
[12] = tested on: NCI-H226
[13] = tested on: KM12
[14] = tested on: DU-145
[15] = tested on: CAKI-1
[16] = tested on: OVCAR-8
[17] = tested on: PC-3
[18] = tested on: SW-620
[19] = tested on: Hs-578T
[20] = tested on: LOX IMVI

SMILES	GI50 [1]	GI50 [2]	GI50 [3]	GI50 [4]	GI50 [5]	GI50 [6]	GI50 [7]	GI50 [8]	GI50 [9]	GI50 [10]	GI50 [11]	GI50 [12]	GI50 [13]	GI50 [14]	GI50 [15]	GI50 [16]	GI50 [17]	GI50 [18]	GI50 [19]	GI50 [20]
CN(C(=O)c1ccncc1)c1ccccc1	> 100 µM (inactive)	> 100 µM (inactive)	> 100 µM (inactive)	> 100 µM (inactive)	> 100 µM (inactive)	> 100 µM (inactive)	> 100 µM (inactive)	> 100 µM (inactive)	> 100 µM (inactive)	> 100 µM (inactive)	> 100 µM (inactive)	> 100 µM (inactive)	> 100 µM (inactive)	> 100 µM (inactive)	> 100 µM (inactive)	> 100 µM (inactive)	> 100 µM (inactive)	> 100 µM (inactive)	> 100 µM (inactive)	> 100 µM (inactive)
CC(C)NC(=O)OCc1c(COC(=O)NC(C)C)c(-c2ccc[n+](COC(=O)Cc3ccccc3)c2)n2c1CCC2	85.5 µM (inactive)	29.1 µM (inactive)	31.7 µM (inactive)	> 100 µM (inactive)	71.1 µM (inactive)	35 µM (inactive)	> 100 µM (inactive)	34.5 µM (inactive)	41.7 µM (inactive)	29.2 µM (inactive)	24.1 µM (inactive)	77.3 µM (inactive)	> 100 µM (inactive)	25.4 µM (inactive)	9.48 µM (inactive)	37.8 µM (inactive)	34 µM (inactive)	22.5 µM (inactive)	48.1 µM (inactive)	24 µM (inactive)
CCO/C=N/NC(=O)CSc1nc2ccc(I)cc2c(=O)n1Cc1ccccc1	22.9 µM (inactive)	35.9 µM (inactive)	37.4 µM (inactive)	43.5 µM (inactive)	38.7 µM (inactive)	56.4 µM (inactive)	> 100 µM (inactive)	53.8 µM (inactive)	57.4 µM (inactive)	> 100 µM (inactive)	> 100 µM (inactive)	64.4 µM (inactive)	46.9 µM (inactive)	> 100 µM (inactive)	> 100 µM (inactive)	87.5 µM (inactive)	43.9 µM (inactive)	46.2 µM (inactive)	34.6 µM (inactive)	63.8 µM (inactive)
C[C@H]1CC[C@@]2(OC1)O[C@H]1C[C@H]3[C@@H]4CC[C@@H]5C[C@@H](OC6OC(CO)C(O)C(O)C6OC6OC(CO)C(O)C(O)C6O)CC[C@]5(C)[C@H]4CC[C@]3(C)[C@H]1[C@@H]2C (stereo not given in full)	2.08 µM (inactive)	2.26 µM (inactive)	2.25 µM (inactive)	2.02 µM (inactive)	2.15 µM (inactive)	2.22 µM (inactive)	0.889 µM (active)	2.03 µM (inactive)	1.9 µM (inactive)	1.69 µM (inactive)	2.35 µM (inactive)	2.34 µM (inactive)	2.6 µM (inactive)	2.34 µM (inactive)	1.8 µM (inactive)	2.45 µM (inactive)	2.13 µM (inactive)	1.77 µM (inactive)	2.44 µM (inactive)	1.99 µM (inactive)
CC(C)(C)c1cc(OCc2nn3c(Cc4ccccc4)nnc3s2)c(Cl)cc1OCc1nn2c(Cc3ccccc3)nnc2s1	12.9 µM (inactive)	21.8 µM (inactive)	94.2 µM (inactive)	53.6 µM (inactive)	26.4 µM (inactive)	12.8 µM (inactive)	23.9 µM (inactive)	55.5 µM (inactive)	24.7 µM (inactive)	> 100 µM (inactive)	25.1 µM (inactive)	> 100 µM (inactive)	26.9 µM (inactive)	30.5 µM (inactive)	23.6 µM (inactive)	25.3 µM (inactive)	20.1 µM (inactive)	43.6 µM (inactive)	> 100 µM (inactive)	37.1 µM (inactive)
